Structures can show the parent of a compound that is named as a salt.
Target: T1, His-EBNA1 (DNA binding domain of EBNA1, amino acids 459-607) (Epstein-Barr virus, UniProt P03211)
T1 construct: made in house; host or cells: E. coli
Experiment: Inhibition of 5′-biotin-oPL4624 binding to His-EBNA1 using Alpha Screen technology
Conditions: Alpha Screen Activity (IC50, inhibition of 5′-biotin-oPL4624 binding to His-EBNA1), 15 nM His-EBNA1, 0.2 nM bt-oPL4624, 2 hr room temperature
Summary of the method: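 AlphaScreen signal (680 nm ex, 570 nm em) after a 2-h room-temperature incubation, normalized to no-EBNA1 (100% inhibition) and EBNA1 (0%) values and fit to a one-site curve. Final conditions: 15 nM His-EBNA1 (aa 459-607), 0.2 nM bt-oPL4624, Tris pH 7.2 buffer with 160 mM NaCl, compound 3.2 nM to 100 μM.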

T1 sequence (P03211 459-607): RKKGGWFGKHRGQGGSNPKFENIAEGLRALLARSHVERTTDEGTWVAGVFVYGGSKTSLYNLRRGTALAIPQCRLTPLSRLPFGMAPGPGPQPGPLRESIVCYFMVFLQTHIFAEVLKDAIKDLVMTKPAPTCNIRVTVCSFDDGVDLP

| Structure (SMILES) | IC50 [µM] |
| --- | --- |
| O=C(O)c1cccc(C#CCNc2ccc3[nH]cnc3c2)c1-c1ccccc1 [Entry 262, 3-{3-[(1H-1,3-benzodiazol-6-yl)amino]prop-1-yn-1-yl}-2-phenylbenzoic acid; trifluoroacetate salt] | 1 to 10 |
| Cn1ccc2cc(-c3c(C#Cc4cccc(O)c4)cccc3C(=O)O)ccc21 [Entry 263, 3-[2-(3-hydroxyphenyl)ethynyl]-2-(1-methyl-1H-indol-5-yl)benzoic acid] | 1 to 10 |
| CN1CCOc2cc(-c3c(C#Cc4cccc(O)c4)cccc3C(=O)O)ccc21 [Entry 264, 3-[2-(3-hydroxyphenyl)ethynyl]-2-(4-methyl-3,4-dihydro-2H-1,4-benzoxazin-7-yl)benzoic acid; trifluoroacetate salt] | 1 to 10 |
| CS(=O)(=O)Nc1cccc(-c2c(C#Cc3cccc(O)c3)cccc2C(=O)O)c1 [Entry 265, 3-[2-(3-hydroxyphenyl)ethynyl]-2-(3-methanesulfonamidophenyl)benzoic acid] | 10 to 100 |
| O=C(O)c1cccc(C#Cc2cccc(O)c2)c1-c1ccc2cc[nH]c2c1 [Entry 266, 3-[2-(3-hydroxyphenyl)ethynyl]-2-(1H-indol-6-yl)benzoic acid] | < 1 |
| NC(=O)c1cccc(-c2c(C#Cc3cccc(O)c3)cccc2C(=O)O)c1 [Entry 267, 2-(3-carbamoylphenyl)-3-[2-(3-hydroxyphenyl)ethynyl]benzoic acid] | 10 to 100 |
| O=C(O)c1cccc(C#Cc2cccc(O)c2)c1-c1cn(S(=O)(=O)c2ccccc2)c2ccccc12 [Entry 268, 2-[1-(benzenesulfonyl)-1H-indol-3-yl]-3-[2-(3-hydroxyphenyl)ethynyl]benzoic acid] | 10 to 100 |
| O=C(O)c1cccc(C#Cc2cccc(O)c2)c1-c1cccc(O)c1 [Entry 269, 2-(3-hydroxyphenyl)-3-[2-(3-hydroxyphenyl)ethynyl]benzoic acid] | 10 to 100 |
| O=C(O)c1cccc(C#Cc2ccncc2)c1-c1ccc2[nH]ccc2c1 [Entry 270, 2-(1H-indol-5-yl)-3-[2-(pyridin-4-yl)ethynyl]benzoic acid; trifluoroacetate salt] | 10 to 100 |
| O=C(O)c1cccc(C#Cc2ccncc2)c1-c1cc(O)cc(Cl)c1 [Entry 271, 2-(3-chloro-5-hydroxyphenyl)-3-[2-(pyridin-4-yl)ethynyl]benzoic acid; trifluoroacetate salt] | 1 to 10 |
| O=C(O)c1cccc(C#Cc2ccncc2)c1-c1cc(O)cc(F)c1 [Entry 272, 2-(3-fluoro-5-hydroxyphenyl)-3-[2-(pyridin-4-yl)ethynyl]benzoic acid; trifluoroacetate salt] | 10 to 100 |
| COc1cc(OC)cc(-c2c(C#Cc3ccncc3)cccc2C(=O)O)c1 [Entry 273, 2-(3,5-dimethoxyphenyl)-3-[2-(pyridin-4-yl)ethynyl]benzoic acid; trifluoroacetate salt] | 10 to 100 |
| O=C(O)c1cccc(C#CC(O)c2ccc(F)cc2)c1-c1cccc(O)c1 (stereo not drawn) [Entry 274, 3-[3-(4-fluorophenyl)-3-hydroxyprop-1-yn-1-yl]-2-(3-hydroxyphenyl)benzoic acid] | 1 to 10 |
| O=C(O)c1cccc(C#Cc2cccc(O)c2)c1-c1ccccc1Oc1ccccc1 [Entry 275, 3-[2-(3-hydroxyphenyl)ethynyl]-2-(2-phenoxyphenyl)benzoic acid] | 10 to 100 |
| O=C(O)c1cccc(C#Cc2cccc(O)c2)c1-c1c[nH]c2ccccc12 [Entry 276, 3-[2-(3-hydroxyphenyl)ethynyl]-2-(1H-indol-3-yl)benzoic acid] | 10 to 100 |
| COc1cc(OC)cc(-c2c(C#Cc3cccc(O)c3)cccc2C(=O)O)c1 [Entry 277, 2-(3,5-dimethoxyphenyl)-3-[2-(3-hydroxyphenyl)ethynyl]benzoic acid] | 10 to 100 |
| NC(=O)c1cccc(C#Cc2cccc(C(=O)O)c2N)c1 [Entry 278, 2-amino-3-[2-(3-carbamoylphenyl)ethynyl]benzoic acid; trifluoroacetate salt] | 10 to 100 |
| Nc1c(C#Cc2cccc(C(=O)O)c2)cccc1C(=O)O [Entry 279, 2-amino-3-[2-(3-carboxyphenyl)ethynyl]benzoic acid; trifluoroacetate salt] | 10 to 100 |
| C(#Cc1ccc2[nH]ccc2c1)c1cccc(-c2nnn[nH]2)c1 [Entry 280, 5-[3-(1H-tetrazol-5-yl)-phenylethynyl]-1H-indole 5-(3-Ethynyl-phenyl)-1H-tetrazole] | 1 to 10 |
| C(#Cc1c[nH]c2ncccc12)c1cccc(-c2nnn[nH]2)c1 [Entry 281, 3-[3-(1H-tetrazol-5-yl)-phenylethynyl]-1H-pyrrolo[2,3-b]pyridine] | 10 to 100 |

| Structure (SMILES) | IC50 [µM] |
| --- | --- |
| C(#Cc1ccc2cc[nH]c2c1)c1cccc(-c2nnn[nH]2)c1 [Entry 282, 6-[3-(1H-tetrazol-5-yl)-phenylethynyl]-1H-indole] | 1 to 10 |
| O=S(=O)(c1ccccc1)n1cc(C#Cc2cccc(-c3nnn[nH]3)c2)c2ccccc21 [Entry 283, 1-benzenesulfonyl-3-[3-(1H-tetrazol-5-yl)-phenylethynyl]-1H-indole] | < 1 |
| C(#Cc1c[nH]c2ccccc12)c1cccc(-c2nnn[nH]2)c1 [Entry 284, 3-[3-(1H-tetrazol-5-yl)-phenylethynyl]-1H-indole] | < 1 |
| OCc1ccccc1C#Cc1cccc(-c2nnn[nH]2)c1 [Entry 285, {2-[3-(1H-tetrazol-5-yl)-phenylethynyl]-phenyl}-methanol] | 10 to 100 |
| O=C(O)c1cccc(C#Cc2cccc(C(=O)N3CCOCC3)c2)c1 [Entry 286, 3-[3-(morpholine-4-carbonyl)-phenylethynyl]-benzoic acid] | 10 to 100 |
| CNC(=O)c1cccc(C#Cc2cccc(C(=O)O)c2)c1 [Entry 287, 3-(3-methylcarbamoyl-phenylethynyl)-benzoic acid] | 10 to 100 |
| CN(C)C(=O)c1cccc(C#Cc2cccc(C(=O)O)c2)c1 [Entry 288, 3-(3-dimethylcarbamoyl-phenylethynyl)-benzoic acid] | 100 to 1000 |
| CN1CCN(C(=O)c2cccc(C#Cc3cccc(C(=O)O)c3)c2)CC1 [Entry 289, 3-[3-(4-methyl-piperazine-1-carbonyl)-phenylethynyl]-benzoic acid] | 100 to 1000 |
| O=C(O)c1cccc(C#Cc2cccc(C(=O)N3CCN(c4ccccc4)CC3)c2)c1 [Entry 290, 3-[3-(4-phenyl-piperazine-1-carbonyl)-phenylethynyl]-benzoic acid] | 10 to 100 |
| O=C(O)c1cccc(C#Cc2ccncc2)c1-n1ccc2ccccc21 [Entry 291, 2-indol-1-yl-3-pyridin-4-ylethynyl-benzoic acid] | 10 to 100 |
| O=C(O)c1cccc(C#Cc2ccncc2)c1-n1ccnc1 [Entry 292, 2-imidazol-1-yl-3-pyridin-4-ylethynyl-benzoic acid] | 100 to 1000 |
| O=C(O)c1cccc(C#Cc2ccncc2)c1-n1cncn1 [Entry 293, 3-pyridin-4-ylethynyl-2-[1,2,4]triazol-1-yl-benzoic acid] | 10 to 100 |
| O=C(O)c1cccc(C#Cc2ccccc2)c1-n1ccnc1 [Entry 294, 2-imidazol-1-yl-3-phenylethynyl-benzoic acid] | 10 to 100 |
| O=C(O)c1cccc(C#Cc2ccccc2)c1-n1cccn1 [Entry 295, 3-phenylethynyl-2-pyrazol-1-yl-benzoic acid] | 100 to 1000 |
| O=C(O)c1cccc(C#Cc2ccccc2)c1-n1cncn1 [Entry 296, 3-phenylethynyl-2-[1,2,4]triazol-1-yl-benzoic acid] | 10 to 100 |
| O=C(O)c1cccc(C#Cc2ccccc2)c1-n1cnc2ccccc21 [Entry 297, 2-benzoimidazol-1-yl-3-phenylethynyl-benzoic acid] | 10 to 100 |
| O=C(O)c1cccc(C#Cc2ccccc2)c1-n1ncc2ccccc21 [Entry 298, 2-indazol-1-yl-3-phenylethynyl-benzoic acid] | 10 to 100 |
| O=C(O)c1cccc(C#Cc2ccccc2)c1-n1ccc2ccccc21 [Entry 299, 2-indol-1-yl-3-phenylethynyl-benzoic acid] | 1 to 10 |
| O=C(O)c1cccc(C#Cc2ccncc2)c1-n1cnc2ccccc21 [Entry 300, 2-benzoimidazol-1-yl-3-pyridin-4-ylethynyl-benzoic acid] | 10 to 100 |

From patent US10421718B2, “EBNA1 inhibitors and their method of use” (priority 2013, dated 2019)
